Test results reported in the supplement of paper PMC7017272.
± gives the standard deviation of the averaged measurements.

Experiments:
Conditions in all cases: treatment time: 3 days
[1] = tested on: UT-SCC-40; assay: maximal % inhibition of viability relative to DMSO; higher = stronger effect
Method: (§1)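 HNSCC cell lines (500 cells/well, 384-well) were cultured on plastic, on top of (2D) or embedded (3D) in Matrigel or human leiomyoma matrix Myogel (500 ug/mL; Myogel 3D mixed with rat collagen I). Cells were treated for 3 days with 5 ten-fold concentrations of each drug, and viability was read by CellTiter-Glo. Viability was normalised to DMSO and benzethonium chloride controls and fitted with the FIMM DSRT pipeline to give IC50 (nM), maximal % inhibition and DSS. Suffixes _1/_2/_3 are replicates. Only inhibition-mode (IC50) fits are kept.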

[2] = tested on: UT-SCC-42B; assay: as above
Method: as §1

[3] = tested on: UT-SCC-24B; assay: as above
Method: as §1

[4] = tested on: UT-SCC-14; assay: as above
Method: as §1

[5] = tested on: UT-SCC-8; assay: as above
Method: as §1

[6] = tested on: UT-SCC-73; assay: as above
Method: as §1

[7] = tested on: UT-SCC-42A; assay: as above
Method: as §1

[8] = tested on: UT-SCC-44; assay: as above
Method: as §1

[9] = tested on: UT-SCC-81; assay: as above
Method: as §1

[10] = tested on: UT-SCC-106A; assay: as above
Method: as §1

[11] = tested on: UT-SCC-28; assay: as above
Method: as §1

[12] = tested on: UT-SCC-24B; assay: relative IC50 (midpoint of the fitted curve; maximal inhibition may be below 50%); higher = less potent
Method in brief: (§2)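 Viability was read with CellTiter-Glo 2.0 luminescence and scaled against vehicle (0.1% DMSO) and cell-killing control wells. The assay used HPV-negative HNSCC cell lines at 500 cells/well in 384-well plates, grown on plastic, on Matrigel or Myogel coatings (500 µg/mL), or embedded in Matrigel or Myogel plus rat collagen I, and treated for 3 days at five 10-fold concentrations. IC50, maximal inhibition and drug sensitivity score were derived from percent-inhibition dose–response curves fitted in the FIMM pipeline.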

[13] = tested on: UT-SCC-14; assay: as above
Method in brief: as §2

[14] = tested on: UT-SCC-8; assay: as above
Method in brief: as §2

[15] = tested on: UT-SCC-42A; assay: as above
Method in brief: as §2

[16] = tested on: UT-SCC-81; assay: as above
Method in brief: as §2

[17] = tested on: UT-SCC-28; assay: as above
Method in brief: as §2

[18] = culture condition: embedded in Matrigel
[19] = culture condition: embedded in Myogel + collagen I
[20] = culture condition: on top of Matrigel
[21] = culture condition: on top of Myogel
[22] = culture condition: plastic 2D (no matrix)

CN(C)C/C=C/C(=O)Nc1cc2c(Nc3ccc(F)c(Cl)c3)ncnc2cc1O[C@H]1CCOC1 [Afatinib]
maximal % inhibition of viability [1, 18]: 80.3 ± 2.6% | maximal % inhibition of viability [1, 19]: 26.2 ± 14% | maximal % inhibition of viability [1, 20]: 74.2 ± 2.8% | maximal % inhibition of viability [1, 21]: 22.6 ± 4.6% | maximal % inhibition of viability [1, 22]: 59.8 ± 7.3% | maximal % inhibition of viability [2, 18]: 73.7 ± 4.9% | maximal % inhibition of viability [2, 20]: 54.4 ± 3.4% | maximal % inhibition of viability [2, 21]: 9.53 ± 0.45% | maximal % inhibition of viability [2, 22]: 37.8 ± 4.5% | maximal % inhibition of viability [3, 18]: 63.2 ± 3% | maximal % inhibition of viability [3, 19]: 37.8 ± 14% | maximal % inhibition of viability [3, 20]: 56.5 ± 1.6% | maximal % inhibition of viability [3, 21]: 21.4 ± 3.8% | maximal % inhibition of viability [3, 22]: 71.4 ± 3.5% | maximal % inhibition of viability [4, 18]: 74.9 ± 5.2% | maximal % inhibition of viability [4, 19]: 44.3 ± 12% | maximal % inhibition of viability [4, 20]: 74.6 ± 7.7% | maximal % inhibition of viability [4, 21]: 47.3 ± 16% | maximal % inhibition of viability [4, 22]: 71.4 ± 10% | maximal % inhibition of viability [5, 18]: 96.67 ± 0.42% | maximal % inhibition of viability [5, 19]: 22.4 ± 19% | maximal % inhibition of viability [5, 20]: 94.3 ± 0.36% | maximal % inhibition of viability [5, 21]: 45.4 ± 12% | maximal % inhibition of viability [5, 22]: 90.7 ± 1.6% | maximal % inhibition of viability [6, 18]: 20.2 ± 7.8% | maximal % inhibition of viability [6, 19]: 25.6 ± 22% | maximal % inhibition of viability [6, 20]: 17.1 ± 3.4% | maximal % inhibition of viability [6, 21]: 11.5 ± 7.3% | maximal % inhibition of viability [6, 22]: 16.7 ± 4.8% | maximal % inhibition of viability [7, 18]: 51.6 ± 4% | maximal % inhibition of viability [7, 19]: 13.4 ± 9.6% | maximal % inhibition of viability [7, 20]: 54 ± 2.1% | maximal % inhibition of viability [7, 21]: 26.6 ± 1.1% | maximal % inhibition of viability [7, 22]: 50.7 ± 2.2% | maximal % inhibition of viability [8, 18]: 7.03 ± 6.5% | maximal % inhibition of viability [8, 19]: 1 ± 1.7% | maximal % inhibition of viability [8, 20]: 9.97 ± 9.3% | maximal % inhibition of viability [8, 21]: 9.63 ± 7.3% | maximal % inhibition of viability [8, 22]: 4.6 ± 5.6% | maximal % inhibition of viability [9, 18]: 88.3 ± 2.3% | maximal % inhibition of viability [9, 19]: 33.4 ± 37% | maximal % inhibition of viability [9, 20]: 83.3 ± 2.2% | maximal % inhibition of viability [9, 21]: 23 ± 7.8% | maximal % inhibition of viability [9, 22]: 71.2 ± 5% | maximal % inhibition of viability [10, 18]: 43.3 ± 3.5% | maximal % inhibition of viability [10, 19]: 7.93 ± 2.1% | maximal % inhibition of viability [10, 20]: 56.6 ± 1.3% | maximal % inhibition of viability [10, 21]: 8.37 ± 4.6% | maximal % inhibition of viability [10, 22]: 60.4 ± 4.3% | maximal % inhibition of viability [11, 18]: 3.87 ± 5.3% | maximal % inhibition of viability [11, 19]: 14.7 ± 6.2% | maximal % inhibition of viability [11, 20]: 12 ± 4% | maximal % inhibition of viability [11, 22]: 8.87 ± 2.8% | relative IC50 [12, 18]: 31.2 nM | relative IC50 [12, 20]: 23 nM | relative IC50 [12, 22]: 12.7 nM | relative IC50 [13, 18]: 30.7 nM | relative IC50 [13, 20]: 39.6 nM | relative IC50 [13, 21]: 47.4 nM | relative IC50 [13, 22]: 40.8 nM | relative IC50 [14, 18]: 19.7 nM | relative IC50 [14, 20]: 21 nM | relative IC50 [14, 22]: 21.6 nM | relative IC50 [15, 18]: 28.9 nM | relative IC50 [15, 20]: 11.4 nM | relative IC50 [15, 21]: 21.2 nM | relative IC50 [15, 22]: 19 nM | relative IC50 [16, 18]: 6.81 nM | relative IC50 [16, 20]: 15.3 nM | relative IC50 [16, 22]: 35.7 nM | relative IC50 [17, 18]: > 989 nM | relative IC50 [17, 19]: > 989 nM
